How the values were obtained:
giant foxtail = experiment: Test B pre/postemergence giant foxtail; assay type: in vivo, Setaria faberii
How it was run: (§1)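 Test chemicals in a non-phytotoxic solvent mixture with surfactant were sprayed preemergence onto planted seeds and postemergence onto plants 2 to 18 cm tall (1- to 4-leaf stage). After twelve to sixteen days in a greenhouse, injury was visually rated against untreated controls from 0 (no effect) to 10 (complete control).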

duck salad = experiment: Test B flood test duck salad; assay type: in vivo, Heteranthera limosa
How it was run: (§2)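 Plants were grown to the 2-leaf stage before treatment with test chemical, then held in a greenhouse for twelve to sixteen days. Injury was visually rated against untreated controls on a 0–10 scale, where 0 is no effect and 10 is complete control.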

cocklebur = experiment: Test B pre/postemergence cocklebur; assay type: in vivo, Xanthium strumarium
How it was run: as §1

smallflower flatsedge = experiment: Test B flood test smallflower flatsedge; assay type: in vivo, Cyperus difformis
How it was run: as §2

soybean = experiment: Test B pre/postemergence soybean; assay type: in vivo, Glycine max
How it was run: as §1

corn = experiment: Test B pre/postemergence corn; assay type: in vivo, Zea mays
How it was run: as §1

velvetleaf = experiment: Test B pre/postemergence velvetleaf; assay type: in vivo, Abutilon theophrasti; conditions: for Plant response rating, Velvetleaf: Rate 250 g/ha
How it was run: as §1

pigweed = experiment: Test B pre/postemergence pigweed; assay type: in vivo, Amaranthus retroflexus
How it was run: as §1

morningglory = experiment: Test B pre/postemergence morningglory; assay type: in vivo, Ipomoea hederacea
How it was run: as §1

bamyardgrass = experiment: Test B flood test barnyardgrass; assay type: in vivo, Echinochloa crus-galli
How it was run: as §2

bedstraw = experiment: Test B pre/postemergence bedstraw; assay type: in vivo, Galium aparine
How it was run: as §1

surinam grass = experiment: Test B pre/postemergence surinam grass; assay type: in vivo, Brachiaria decumbens
How it was run: as §1

purple nutsedge = experiment: Test B pre/postemergence purple nutsedge; assay type: in vivo, Cyperus rotundus
How it was run: as §1

rape = experiment: Test B pre/postemergence rape; assay type: in vivo, Brassica napus
How it was run: as §1

sugar beet = experiment: Test B pre/postemergence sugar beet; assay type: in vivo, Beta vulgaris; conditions: for Plant response rating, Sugarbeets: Rate 250 g/ha
How it was run: as §1

blackgrass = experiment: Test B pre/postemergence blackgrass; assay type: in vivo, Alopecurus myosuroides
How it was run: as §1

[1] = Postemergence, Rate 125 g/ha, scale of 0 to 10 where 0 is no effect and 10 is complete control
[2] = Postemergence, Rate 250 g/ha, scale 0 to 10, 0 no effect, 10 complete control
[3] = Preemergence, Rate 62 g/ha, scale 0 to 10 (0 no effect, 10 complete control)
[4] = Preemergence, Rate 125 g/ha, scale 0 to 10 (0 no effect, 10 complete control)
[5] = Preemergence, Rate 250 g/ha, scale of 0 to 10 where 0 is no effect and 10 is complete control
[6] = Preemergence, Rate 500 g/ha, scale 0 to 10 (0 no effect, 10 complete control)
[7] = Rate 62 g/ha, Postemergence, scale of 0 to 10 where 0 is no effect and 10 is complete control
[8] = Rate 500 g/ha, Postemergence, scale 0 to 10, 0 no effect, 10 complete control
[9] = Postemergence (flood test species), Rate 125 g/ha, scale of 0 to 10 where 0 is no effect and 10 is complete control
[10] = Rate 62 g/ha, Postemergence section, flood test species, scale of 0 to 10 where 0 is no effect and 10 is complete control
[11] = Rate 250 g/ha, headed Pre-emergence (flood test species), scale 0 to 10 (0 no effect, 10 complete control)
[12] = Rate 500 g/ha, headed Pre-emergence (flood test species), scale 0 to 10 (0 no effect, 10 complete control)
[13] = Rate 500 g/ha, listed under Postemergence (flood test species), scale 0 to 10, 0 no effect, 10 complete control
[14] = Rate 1000 g/ha, Pre-emergence (as headed), scale 0 to 10
[15] = Rate 2000 g/ha, Pre-emergence (as headed), scale 0 to 10
[16] = flood test, listed under Postemergence, Rate 250 g/ha, scale 0 to 10, 0 no effect, 10 complete control
[17] = Rate 250 g/ha, Postemergence, scale 0 to 10, 0 is no effect, 10 is complete control
[18] = Preemergence, Rate 125 g/ha, 0 is no effect, 10 is complete control
[19] = Preemergence, scale of 0 to 10 where 0 is no effect and 10 is complete control
[20] = Postemergence, scale 0 to 10, 0 is no effect, 10 is complete control
[21] = Postemergence, Rate 62 g/ha, scale 0 to 10, 0 is no effect, 10 is complete control
[22] = Rate 125 g/ha, Postemergence, scale 0 to 10, 0 no effect, 10 complete control

Structure (SMILES): C=CCn1c(=O)on(C(=O)N(c2ccc(Cl)cc2)C(C)C)c1=O [Compound 105]
- Giant foxtail plant response rating (giant foxtail; [1]): 3
- Giant foxtail plant response rating (giant foxtail; [2]): 7
- Giant foxtail plant response rating (giant foxtail; [3]): 10
- Plant response rating, Giant foxtail (giant foxtail; [4]): 10
- Plant response rating, Giant foxtail (giant foxtail; [5]): 10
- Giant foxtail plant response rating (giant foxtail; [6]): 10
- Giant foxtail plant response rating (giant foxtail; [7]): 2
- Giant foxtail plant response rating (giant foxtail; [8]): 8
- Ducksalad plant response rating (duck salad; [9]): 0
- Ducksalad plant response rating (duck salad; [10]): 0
- Ducksalad plant response rating (duck salad; [11]): 0
- Plant response rating, Ducksalad (duck salad; [12]): 0
- Ducksalad plant response rating (duck salad; [13]): 0
- Ducksalad plant response rating (duck salad; [14]): 0
- Ducksalad plant response rating (duck salad; [15]): 0
- Ducksalad plant response rating (duck salad; [16]): 0
- Cocklebur plant response rating (cocklebur; [1]): 0
- Cocklebur plant response rating (cocklebur; [2]): 1
- Cocklebur plant response rating (cocklebur; [3]): 0
- Plant response rating, Cocklebur (cocklebur; [4]): 0
- Plant response rating, Cocklebur (cocklebur; [5]): 0
- Cocklebur plant response rating (cocklebur; [6]): 0
- Cocklebur plant response rating (cocklebur; [7]): 0
- Cocklebur plant response rating (cocklebur; [8]): 4
- S. Flatsedge plant response rating (smallflower flatsedge; [9]): 0
- S. Flatsedge plant response rating (smallflower flatsedge; Pre-emergence, Rate 1000 g/ha, scale 0 to 10 (0 no effect, 10 complete control)): 0
- S. Flatsedge plant response rating (smallflower flatsedge; [10]): 0
- Plant response rating, S. Flatsedge (smallflower flatsedge; Rate 250 g/ha, Postemergence (flood test), scale 0 to 10, 0 is no effect, 10 is complete control): 0
- S. Flatsedge plant response rating (smallflower flatsedge; [11]): 0
- Plant response rating, S. Flatsedge (smallflower flatsedge; [12]): 0
- S. Flatsedge plant response rating (smallflower flatsedge; [13]): 0
- S. Flatsedge plant response rating (smallflower flatsedge; [15]): 0
- Soybean plant response rating (soybean; [1]): 1
- Soybean plant response rating (soybean; [3]): 0
- Plant response rating, Soybean (soybean; [4]): 0
- Plant response rating, Soybean (soybean; [5]): 0
- Soybean plant response rating (soybean; [6]): 0
- Soybean plant response rating (soybean; [7]): 1
- Plant response rating, Soybean (soybean; [17]): 3
- Soybean plant response rating (soybean; [8]): 6
- Corn plant response rating (corn; [1]): 0
- Corn plant response rating (corn; [2]): 0
- Corn plant response rating (corn; [3]): 0
- Plant response rating, Corn (corn; [4]): 0
- Plant response rating, Corn (corn; [5]): 2
- Corn plant response rating (corn; [6]): 3
- Corn plant response rating (corn; [7]): 0
- Corn plant response rating (corn; [8]): 2
- Velvetleaf plant response rating (velvetleaf; [1]): 0
- Velvetleaf plant response rating (velvetleaf; [3]): 0
- Velvetleaf plant response rating (0 to 10 scale) (velvetleaf; [18]): 4
- Plant response rating, Velvetleaf (velvetleaf; [19]): 5
- Velvetleaf plant response rating (velvetleaf; [6]): 6
- Velvetleaf plant response rating (velvetleaf; [7]): 0
- Plant response rating, Velvetleaf (velvetleaf; [20]): 3
- Velvetleaf plant response rating (velvetleaf; [8]): 4
- Redroot pigweed plant response rating (pigweed; [1]): 0
- Redroot pigweed plant response rating (pigweed; [3]): 0
- Plant response rating, Redroot pigweed (pigweed; [4]): 3
- Plant response rating, Redroot pigweed (pigweed; [5]): 9
- Redroot pigweed plant response rating (pigweed; [6]): 10
- Redroot pigweed plant response rating (pigweed; [7]): 0
- Plant response rating, Redroot pigweed (pigweed; [17]): 0
- Redroot pigweed plant response rating (pigweed; [8]): 3
- Morningglory plant response rating (morningglory; [1]): 2
- Morningglory plant response rating (morningglory; [2]): 3
- Morningglory plant response rating (morningglory; [3]): 0
- Plant response rating, Morningglory (morningglory; [4]): 0
- Plant response rating, Morningglory (morningglory; [5]): 0
- Morningglory plant response rating (morningglory; [6]): 0
- Morningglory plant response rating (morningglory; [8]): 4
- Barnyardgrass plant response rating (bamyardgrass; [21]): 0
- Barnyardgrass plant response rating (bamyardgrass; Rate 125 g/ha, Postemergence section (flood test species), scale 0 to 10, 0 no effect, 10 complete control): 0
- Barnyardgrass plant response rating (bamyardgrass; [11]): 0
- Plant response rating, Barnyardgrass (bamyardgrass; [12]): 0
- Barnyardgrass plant response rating (bamyardgrass; [13]): 0
- Barnyardgrass plant response rating (bamyardgrass; [14]): 0
- Barnyardgrass plant response rating (bamyardgrass; Rate 2000 g/ha, Pre-emergence (as headed), scale 0 to 10, 0 no effect, 10 complete control): 0
- Barnyardgrass plant response rating (bamyardgrass; [16]): 0
- Bedstraw plant response rating (bedstraw; [21]): 0
- Bedstraw plant response rating (bedstraw; [2]): 2
- Bedstraw plant response rating (bedstraw; [3]): 0
- Plant response rating, Bedstraw (bedstraw; [4]): 0
- Plant response rating, Bedstraw (bedstraw; [5]): 0
- Bedstraw plant response rating (bedstraw; [6]): 5
- Bedstraw plant response rating (bedstraw; [22]): 0
- Bedstraw plant response rating (bedstraw; [8]): 3
- B. signalgrass plant response rating (surinam grass; [21]): 0
- B. signalgrass plant response rating (surinam grass; [2]): 3
- B. signalgrass plant response rating (surinam grass; [3]): 0
- Plant response rating, B. signalgrass (surinam grass; [4]): 1
- Plant response rating, B. signalgrass (surinam grass; [5]): 5
- B. signalgrass plant response rating (surinam grass; [6]): 10
- B. signalgrass plant response rating (surinam grass; [22]): 2
- B. signalgrass plant response rating (surinam grass; Rate 500 g/ha, Postemergence, scale of 0 to 10 where 0 is no effect and 10 is complete control): 3
- Nutsedge plant response rating (purple nutsedge; [1]): 0
- Nutsedge plant response rating (purple nutsedge; [2]): 0
- Nutsedge plant response rating (purple nutsedge; [3]): 0
- Plant response rating, Nutsedge (purple nutsedge; [4]): 0
- Plant response rating, Nutsedge (purple nutsedge; [5]): 0
- Nutsedge plant response rating (purple nutsedge; [6]): 0
- Nutsedge plant response rating (purple nutsedge; [7]): 0
- Nutsedge plant response rating (purple nutsedge; [8]): 2
- Rape plant response rating (rape; [1]): 0
- Rape plant response rating (rape; [2]): 0
- Rape plant response rating (rape; [3]): 0
- Plant response rating, Rape (rape; [4]): 1
- Plant response rating, Rape (rape; [5]): 4
- Rape plant response rating (rape; [6]): 6
- Rape plant response rating (rape; [7]): 0
- Rape plant response rating (rape; [8]): 2
- Sugarbeets plant response rating (sugar beet; [1]): 0
- Sugarbeets plant response rating (sugar beet; [3]): 0
- Sugarbeets plant response rating (0 to 10 scale) (sugar beet; [18]): 1
- Plant response rating, Sugarbeets (sugar beet; [19]): 4
- Sugarbeets plant response rating (sugar beet; [6]): 9
- Sugarbeets plant response rating (sugar beet; [7]): 0
- Plant response rating, Sugarbeets (sugar beet; [20]): 0
- Sugarbeets plant response rating (sugar beet; [8]): 0
- Blackgrass plant response rating (blackgrass; [1]): 6
- Blackgrass plant response rating (blackgrass; [2]): 7
- Blackgrass plant response rating (blackgrass; [3]): 5
- Plant response rating, Blackgrass (blackgrass; [4]): 7
- Plant response rating, Blackgrass (blackgrass; [5]): 8
- Blackgrass plant response rating (blackgrass; [6]): 10
- Blackgrass plant response rating (blackgrass; [7]): 2
- Blackgrass plant response rating (blackgrass; [8]): 8
